Results taken from patent publication US7560466B2, “Methods of treating or preventing autoimmune diseases with 2,4-pyrimidinediamine compounds” (Rigel Pharmaceuticals, Inc., priority 2003, dated 2009).
Where two headings read alike, the source gives them in different places.

Tested on: cultured human mast cells (CHMC), IgE-induced degranulation
Assay: CHMC low cell density IgE activation: tryptase assay
Assay type: cell-based
Summary of the method: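 Tryptase release read fluorogenically (30 min, room temperature) from supernatants of anti-IgE-challenged cultured human mucosal mast cells derived from umbilical cord CD34+ cells, at low density of 1000–1500 cells/well.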

[1] = low cell density CHMC, 3-point, read-out: LD Tryptase, CHMC, IgE, 3pt
[2] = low cell density CHMC, 8-point, read-out: LD Tryptase, CHMC, IgE, 8pt
[3] = low cell density CHMC, 3pt, read-out: LD Tryptase, CHMC, IgE, 3pt
[4] = low cell density CHMC, 8pt, read-out: LD Tryptase, CHMC, IgE, 8pt
[5] = Homo sapiens, Mast cell, low cell density CHMC, 3pt, read-out: LD Tryptase, CHMC, IgE, 3pt
[6] = Homo sapiens, Mast cell, low cell density CHMC, 8pt, read-out: LD Tryptase, CHMC, IgE, 8pt
[7] = CHMC low cell density, 8pt, read-out: LD Tryptase, CHMC, IgE, 8pt

**Q.** How did the IC50 [1] turn out when `Fc1cnc(Nc2cccc(N3CCOCC3)c2)nc1Nc1ccc2c(n1)NCCO2` [Compound 1136, N4-(3,4-Dihydro-2H,4H-5-pyrid[1,4]oxazin-6-yl)-5-fluoro-N2-(3-morpholinophenyl)-2,4-pyrimidinediamine] was run?
**A.** The IC50 was < 10 µM.

**Q.** And the IC50 [2]?
**A.** Its IC50 is < 10 µM.

**Q.** With `CC(=O)N1CCN(c2cccc(Nc3ncc(F)c(Nc4ccc5c(n4)NCCO5)n3)c2)CC1` [Compound 1137, N2-[3-(4-Acetylpiperazino)phenyl]-N4-(3,4-dihydro-2H,4H-5-pyrid[1,4]oxazin-6-yl)-5-fluoro-2,4-pyrimidinediamine] as the compound, how does the IC50 [1] read?
**A.** Its IC50 is < 10 µM.

**Q.** And the IC50 [2]?
**A.** Its IC50 is < 10 µM.

**Q.** For `CCOC(=O)N1CCN(c2cccc(Nc3ncc(F)c(Nc4ccc5c(n4)NCCO5)n3)c2)CC1` [Compound 1138, N4-(3,4-Dihydro-2H,4H-5-pyrid[1,4]oxazin-6-yl)-N2-[3-(4-ethoxycarbonylpiperazino)phenyl]-5-fluoro-2,4-pyrimidinediamine], which IC50 [1] is on record?
**A.** The IC50 was < 10 µM.

**Q.** What about the IC50 [2] of the same compound?
**A.** Its IC50 is < 10 µM.

**Q.** Which IC50 [3] does the source give for `CN1CCN(c2ccc(Nc3ncc(F)c(Nc4ccc5c(n4)NCCO5)n3)cc2Cl)CC1` [Compound 1197, N2-[3-Chloro-4-(4-methylpiperazino)phenyl]-N4-(3,4-dihydro-2H,4H-5-pyrid[1,4]oxazin-6-yl)-5-fluoro-2,4-pyrimidinediamine] here?
**A.** Its IC50 is < 10 µM.

**Q.** And the IC50 [4]?
**A.** The IC50 was < 10 µM.

**Q.** `Cc1cc(Nc2ncc(F)c(Nc3ccc4c(n3)NCCO4)n2)ccc1N1CCN(C)CC1` [Compound 1203, N4-(3,4-Dihydro-2H,4H-5-pyrid[1,4]oxazin-6-yl)-5-fluoro-N2-[3-methyl-4-(4-methylpiperazino)phenyl]-2,4-pyrimidinediamine] was tested. Which IC50 [3] did it give?
**A.** Its IC50 is < 10 µM.

**Q.** And the IC50 [4]?
**A.** Its IC50 is < 10 µM.

**Q.** How did the IC50 [5] turn out when `C[C@@H]1Oc2ccc(Nc3nc(Nc4ccc(C(=O)N=CC(=O)O)cc4)ncc3F)cc2NC1=O` [Compound 1264] was run?
**A.** Its IC50 is > 10 µM.

**Q.** Which IC50 [5] does the source give for `C[C@H]1Oc2ccc(Nc3nc(Nc4ccc(C(=O)N=CC(=O)O)cc4)ncc3F)cc2NC1=O` [Compound 1267] here?
**A.** The IC50 was > 10 µM.

**Q.** How did the IC50 [5] turn out when `C[C@@H]1Oc2ccc(Nc3nc(NC4=CC=CC(=CNC(=O)OC(C)(C)C)C4)ncc3F)cc2NC1=O` [Compound 1276] was run?
**A.** The IC50 was < 10 µM.

**Q.** And the IC50 [6]?
**A.** The IC50 was < 10 µM.

**Q.** Which IC50 [5] does the source give for `C[C@@H]1Oc2ccc(Nc3nc(NC4=CC=CC(=CN)C4)ncc3F)cc2NC1=O` [Compound 1279] here?
**A.** Its IC50 is < 10 µM.

**Q.** And the IC50 [6]?
**A.** Its IC50 is < 10 µM.

**Q.** What does the source list for `C[C@H]1Oc2ccc(Nc3nc(Nc4cccc(CN)c4)ncc3F)cc2NC1=O` [Compound 1280]?
**A.** IC50 [3]: < 10 µM; IC50 [4]: < 10 µM

**Q.** How did the IC50 [3] turn out when “(R)—N2-[3-(N-tert-Butoxycarbonylamino)methylenephenyl]-5-fluoro-N4-(2-methyl-3-oxo-2H,4H-benz[1,4]oxazin-6-yl) [Compound 1277]” was run?
**A.** The IC50 was < 10 µM.

**Q.** And the IC50 [4]?
**A.** The IC50 was < 10 µM.

**Q.** “(S)-5-Fluoro-[1-(2-hydroxymethyl)-2-trifluoromethylbenzimidazol-5-yl]-N4-(2-methyl-3-oxo-2H,4H-benz[1,4]oxazin-6-yl)-2,4-pyrimidinediamine [Compound 923]” was tested. Which IC50 [7] did it give?
**A.** Its IC50 is < 10 µM.

**Q.** With “N2-(2-Aminocarbonylphenyl)-N4-(2,2-dimethyl-3-oxo-4H-5-pyrid[1,4]oxazin-6-yl)-5-fluoro-2,4-pyrimidinediamine [Compound 1316]” as the compound, how does the IC50 [3] read?
**A.** The IC50 was < 10 µM.

**Q.** What about the IC50 [4] of the same compound?
**A.** Its IC50 is > 10 µM.

**Q.** Which IC50 [3] does the source give for “N2-(4-Aminocarbonylphenyl)-N4-(2,2-dimethyl-3-oxo-4H-5-pyrid[1,4]oxazin-6-yl)-5-fluoro-2,4-pyrimidinediamine [Compound 1315]” here?
**A.** The IC50 was < 10 µM.

**Q.** “N4-(2,2-Dimethyl-3-oxo-4H-5-pyrid[1,4]oxazin-6-yl)-5-fluoro-N2-(3-methoxycarbonylppyrid-2yl)-2,4-pyrimidinediamine [Compound 1314]” was tested. Which IC50 [3] did it give?
**A.** The IC50 was < 10 µM.

**Q.** For “N4-(2,2-Dimethyl-3-oxo-4H-5-pyrid[1,4]oxazin-6-yl)-5-fluoro-N2-(4-methoxycarbonylphenyl)-2,4-pyrimidinediamine [Compound 1313]”, which IC50 [3] is on record?
**A.** Its IC50 is < 10 µM.

**Q.** Which IC50 [7] does the source give for “N4-(2,2-Dimethyl-3-oxo-4H-5-pyrid[1,4]oxazin-6-yl)-5-fluoro-[1-(2-hydroxymethyl)-2-trifluoromethylbenzimidazol-5-yl]-2,4-pyrimidinediamine [Compound 924]” here?
**A.** The IC50 was < 10 µM.
